Data reported in paper PMC7317746 (Environmental and Molecular Mutagenesis, 2020).

Key:
[1] = test system: liver cells; assay: Comet assay, liver cells; format: in vivo, rat
[2] = test system: peripheral blood cells; assay: Comet assay, peripheral blood cells; format: in vivo, rat
[3] = 1-Month Study, 200 mg/kg/day Days 28-29, Day 29, positive control
[4] = 3-Day Study, 200 mg/kg/day Days 2-3, Day 3, positive control

CCOS(C)(=O)=O [EMS, ethyl methanesulfonate]
Liver % tail intensity mean ± SD [1, 3]: 30.79 ± 10.66 %
Liver % tail intensity mean ± SD [1, 4]: 28.07 ± 1.64 %
Blood % tail intensity mean ± SD [2, 3]: 26.41 ± 4.85 %
Blood % tail intensity mean ± SD [2, 4]: 24.56 ± 1.94 %
